Assay: Phase 1 multiple ascending dose, dose titration study with healthy subjects (adverse events, tolerated dose)
Assay type: in vivo, human
Method: This study was a phase 1, randomized, double-blind, placebo-controlled, multiple-dose, dose titration study. A titration interval of 6 days was employed, with each dose being administered for at least 5 days. One goal was to determine the effect of dose titration on adverse effects.
In each of two subject cohorts, Cohort 1 and Cohort 2, subjects were treated at each dose level for duration of 5 days with exception of the last dose level which included 7 days of treatment.
The protocol was amended to provide for an additional cohort, Cohort 3, in order to evaluate a different dose escalation regimen, as disclosed below.
Cohorts 1 and 2: Two groups of 15 subjects were enrolled and randomized to receive placebo (5 subjects per Cohort) or a starting dose of 0.05 mg Compound 1 (10 subjects per Cohort) on Day I. Once daily (q.d.) dosing continued through 5 days. If tolerated, the next dose escalation (placebo or 0.1 mg q.d. Compound 1) occurred on Day 6 and this dose was administered daily through Day 10.
Subsequent dose escalations were to occur in the same manner every 6th day for up to 3 additional dose escalations if tolerated (placebo or 0.2, 0.3, and 0.4 mg Compound 1) with the final dose maintained for a duration of 7 days. The dose could be decreased (“de-escalated”) or increased (“re-escalated”) based on assessment of safety and tolerability.
Cohort 3: One group of 25 subjects (S placebo and 20 active) were enrolled and randomized to receive a starting dose of 0.01 mg Compound 1 twice daily or placebo on Day 1. Twice daily dosing continued through 5 days. If tolerated, the next dose escalation (placebo or Compound 1 0.02 mg twice daily) occurred on Day 6 and this dose was administered daily through Day 10. Subsequent dose escalations were to occur in the same manner every 6th day for up to 4 additional dose escalations if tolerated (placebo or 0.03, 0.04. 0.05, and 0.07 mg twice daily Compound 1). The dose could be decreased (“de-escalated”) or increased (“re-escalated”) based on assessment of safety and tolerability. The doses tested in this cohort were 0.01, 0.02, 0.03, 0.04, 0.05, and 0.07 mg administered twice daily for a total daily dose of 0.02, 0.04, 0.06, 0.08, 0.1, and 0.14 mg, respectively.
Compound 1 capsules were provided as 0.01 mg (all Cohorts) and 0.1 mg (Cohorts 1 and 2 only) strengths.

[1] = Cohort 3, twice daily, 0.07 mg (N = 4)
[2] = Cohort 3, twice daily, Total (all doses) (N = 20)
[3] = Cohorts 1 and 2, once daily, 0.03 mg (N = 4)
[4] = Cohorts 1 and 2, once daily, 0.05 mg (N = 20)
[5] = Cohorts 1 and 2, once daily, 0.1 mg (N = 16)
[6] = Cohorts 1 and 2, once daily, 0.2 mg (N = 5)
[7] = Cohorts 1 and 2, once daily, 0.3 mg (N = 1)
[8] = Cohorts 1 and 2, once daily, 0.4 mg (N = 1)
[9] = Cohorts 1 and 2, once daily, Total (all doses) (N = 20)
[10] = Cohorts 1 and 2, 0.05 mg once daily

SMILES: O=C(O)COC[C@H]1CC[C@H](COC(=O)N(c2ccccc2)c2ccc(Cl)cc2)CC1 [Compound 1, 2-(((1r,4r)-4-(((4-chlorophenyl)(phenyl)carbamoyloxy)methyl)cyclohexyl)methoxy)acetic acid]
- Adverse Events (no. of subjects) leading to Decrease of Dose: Priapism [1]: 0 subjects
- Adverse Events (no. of subjects) leading to Decrease of Dose: Vomiting [1]: 0 subjects
- Adverse Events (no. of subjects) leading to Decrease of Dose: Abdominal pain [2]: 2 subjects
- Adverse Events (no. of subjects) leading to Decrease of Dose: Arthralgia [2]: 2 subjects
- Adverse Events (no. of subjects) leading to Decrease of Dose: Chest discomfort [2]: 1 subjects
- Adverse Events (no. of subjects) leading to Decrease of Dose: Chest pain [2]: 1 subjects
- Adverse Events (no. of subjects) leading to Decrease of Dose: Diarrhoea [2]: 2 subjects
- Adverse Events (no. of subjects) leading to Decrease of Dose: Dizziness [2]: 3 subjects
- Adverse Events (no. of subjects) leading to Decrease of Dose: Headache [2]: 10 subjects
- Adverse Events (no. of subjects) leading to Decrease of Dose: Jaw pain [2]: 1 subjects
- Adverse Events (no. of subjects) leading to Decrease of Dose: Myalgia [2]: 4 subjects
- Adverse Events (no. of subjects) leading to Decrease of Dose: Nausea [2]: 5 subjects
- Adverse Events (no. of subjects) leading to Decrease of Dose: Palpitations [2]: 1 subjects
- Adverse Events (no. of subjects) leading to Decrease of Dose: Priapism [2]: 1 subjects
- Adverse Events (no. of subjects) leading to Decrease of Dose: Vomiting [2]: 1 subjects
- Tolerability of the starting dose (Cohort 3, 0.01 mg twice daily): all of the subjects were able to tolerate
- Tolerability of the first escalation (Cohort 3, 0.02 mg twice daily): all of the subjects were able to tolerate
- Subjects who completed the study at the dose (Cohort 3, 0.03 mg twice daily): Five
- Subjects able to escalate to the dose level through study completion (Cohort 3, 0.04 mg twice daily): Two
- Subjects able to escalate to the dose level through study completion (Cohort 3, 0.05 mg): Five
- Tolerability of the dose (Cohort 3, 0.07 mg twice daily): tolerated through study completion
- Subjects able to escalate to the dose (Cohort 3, 0.07 mg twice daily, highest dose level): Two
- Subjects who discontinued treatment due to an adverse event (Cohort 3, Day 20): One
- Subjects who received 0.03 mg as highest dose for at least 3 days (Cohorts 1 and 2): 0.03 mg-17 subjects
- Subjects who received 0.1 mg as highest dose for at least 3 days (Cohorts 1 and 2): 0.1 mg-8 subjects
- Subjects who received 0.2 mg as highest dose for at least 3 days (Cohorts 1 and 2): 0.2 mg-1 subjects
- Subjects who received 0.30 mg as highest dose for at least 3 days (Cohorts 1 and 2): 0.30 mg-1 subject
- Subjects with Final Compound 1 Total Daily Dose of 0.03 mg (Cohorts 1 and 2): 0.03 mg-3 subjects
- Subjects with Final Compound 1 Total Daily Dose of 0.05 mg (Cohorts 1 and 2): 0.05 mg-9 subjects
- Subjects with Final Compound 1 Total Daily Dose of 0.10 mg (Cohorts 1 and 2): 0.10 mg-7 subjects
- Subjects with Final Compound 1 Total Daily Dose of 0.30 mg (Cohorts 1 and 2): 0.30 mg-1 subject
- Adverse Events (no. of subjects) leading to Decrease of Dose: Chest pain [3]: 0 subjects
- Adverse Events (no. of subjects) leading to Decrease of Dose: Diarrhoea [3]: 0 subjects
- Adverse Events (no. of subjects) leading to Decrease of Dose: Erythema [3]: 0 subjects
- Adverse Events (no. of subjects) leading to Decrease of Dose: Headache [3]: 0 subjects
- Adverse Events (no. of subjects) leading to Decrease of Dose: Jaw pain [3]: 0 subjects
- Adverse Events (no. of subjects) leading to Decrease of Dose: Nausea [3]: 0 subjects
- Adverse Events (no. of subjects) leading to Decrease of Dose: Vomiting [3]: 0 subjects
- Adverse Events (no. of subjects) leading to Decrease of Dose: Chest pain [4]: 0 subjects
- Adverse Events (no. of subjects) leading to Decrease of Dose: Diarrhoea [4]: 1 subjects
- Adverse Events (no. of subjects) leading to Decrease of Dose: Erythema [4]: 0 subjects
- Adverse Events (no. of subjects) leading to Decrease of Dose: Headache [4]: 2 subjects
- Adverse Events (no. of subjects) leading to Decrease of Dose: Jaw pain [4]: 0 subjects
- Adverse Events (no. of subjects) leading to Decrease of Dose: Nausea [4]: 1 subjects
- Adverse Events (no. of subjects) leading to Decrease of Dose: Vomiting [4]: 4 subjects
- Adverse Events (no. of subjects) leading to Decrease of Dose: Chest pain [5]: 1 subjects
- Adverse Events (no. of subjects) leading to Decrease of Dose: Diarrhoea [5]: 0 subjects
- Adverse Events (no. of subjects) leading to Decrease of Dose: Erythema [5]: 0 subjects
- Adverse Events (no. of subjects) leading to Decrease of Dose: Headache [5]: 5 subjects
- Adverse Events (no. of subjects) leading to Decrease of Dose: Jaw pain [5]: 1 subjects
- Adverse Events (no. of subjects) leading to Decrease of Dose: Nausea [5]: 1 subjects
- Adverse Events (no. of subjects) leading to Decrease of Dose: Vomiting [5]: 2 subjects
- Adverse Events (no. of subjects) leading to Decrease of Dose: Chest pain [6]: 0 subjects
- Adverse Events (no. of subjects) leading to Decrease of Dose: Diarrhoea [6]: 0 subjects
- Adverse Events (no. of subjects) leading to Decrease of Dose: Erythema [6]: 0 subjects
- Adverse Events (no. of subjects) leading to Decrease of Dose: Headache [6]: 1 subjects
- Adverse Events (no. of subjects) leading to Decrease of Dose: Jaw pain [6]: 0 subjects
- Adverse Events (no. of subjects) leading to Decrease of Dose: Nausea [6]: 2 subjects
- Adverse Events (no. of subjects) leading to Decrease of Dose: Vomiting [6]: 2 subjects
- Adverse Events (no. of subjects) leading to Decrease of Dose: Chest pain [7]: 0 subjects
- Adverse Events (no. of subjects) leading to Decrease of Dose: Diarrhoea [7]: 0 subjects
- Adverse Events (no. of subjects) leading to Decrease of Dose: Erythema [7]: 0 subjects
- Adverse Events (no. of subjects) leading to Decrease of Dose: Headache [7]: 0 subjects
- Adverse Events (no. of subjects) leading to Decrease of Dose: Jaw pain [7]: 0 subjects
- Adverse Events (no. of subjects) leading to Decrease of Dose: Nausea [7]: 0 subjects
- Adverse Events (no. of subjects) leading to Decrease of Dose: Vomiting [7]: 0 subjects
- Adverse Events (no. of subjects) leading to Decrease of Dose: Chest pain [8]: 0 subjects
- Adverse Events (no. of subjects) leading to Decrease of Dose: Diarrhoea [8]: 0 subjects
- Adverse Events (no. of subjects) leading to Decrease of Dose: Erythema [8]: 1 subjects
- Adverse Events (no. of subjects) leading to Decrease of Dose: Headache [8]: 0 subjects
- Adverse Events (no. of subjects) leading to Decrease of Dose: Jaw pain [8]: 0 subjects
- Adverse Events (no. of subjects) leading to Decrease of Dose: Nausea [8]: 0 subjects
- Adverse Events (no. of subjects) leading to Decrease of Dose: Vomiting [8]: 0 subjects
- Adverse Events (no. of subjects) leading to Decrease of Dose: Chest pain [9]: 1 subjects
- Adverse Events (no. of subjects) leading to Decrease of Dose: Diarrhoea [9]: 1 subjects
- Adverse Events (no. of subjects) leading to Decrease of Dose: Erythema [9]: 1 subjects
- Adverse Events (no. of subjects) leading to Decrease of Dose: Headache [9]: 8 subjects
- Adverse Events (no. of subjects) leading to Decrease of Dose: Jaw pain [9]: 1 subjects
- Adverse Events (no. of subjects) leading to Decrease of Dose: Nausea [9]: 4 subjects
- Adverse Events (no. of subjects) leading to Decrease of Dose: Vomiting [9]: 8 subjects
- Subjects unable to tolerate the starting dose (number) [10]: three
- Subjects unable to tolerate the starting dose (percent) [10]: 15%
- Subjects who tolerated the dose (Cohorts 1 and 2, 0.2 mg once daily): One
- Tolerability of the dose (Cohorts 1 and 2, 0.4 mg once daily, highest dose administered (one subject)): not tolerated
- Subjects who withdrew (Cohorts 1 and 2, Day 1): One
- AEs considered moderate in intensity (within the Compound 1 group): 95%
- AEs deemed by the investigator to be probably related to study drug (within the Compound 1 group): 90%
